Values of other authors in patent US12296050B2, “Pharmaceutical compositions comprising maralixibat and uses thereof” (Mirum Pharmaceuticals, Inc., priority 2023, dated 2025).

Molecular target: T1, apical sodium co-dependent bile acid transport (Homo sapiens, UniProt Q12908)
T1 sequence (Q12908 1-348): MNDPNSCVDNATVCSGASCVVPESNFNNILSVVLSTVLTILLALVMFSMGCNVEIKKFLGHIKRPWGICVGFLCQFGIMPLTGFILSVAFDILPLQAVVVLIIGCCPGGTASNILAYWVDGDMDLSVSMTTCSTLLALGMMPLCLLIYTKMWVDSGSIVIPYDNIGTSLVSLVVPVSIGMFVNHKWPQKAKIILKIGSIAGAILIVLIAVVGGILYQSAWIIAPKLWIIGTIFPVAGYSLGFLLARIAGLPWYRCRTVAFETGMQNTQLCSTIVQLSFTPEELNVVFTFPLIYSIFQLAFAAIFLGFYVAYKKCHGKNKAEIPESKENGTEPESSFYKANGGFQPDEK
Details: known from U.S. Pat. No. 5,994,391

Effect on apical sodium co-dependent bile acid transport, in words: inhibits
Compound: CCCCC1(CCCC)CS(=O)(=O)c2ccc(N(C)C)cc2[C@@H](c2ccc(OCc3ccc(C[N+]45CCN(CC4)CC5)cc3)cc2)[C@H]1O.[Cl-] [maralixibat chloride]
